Data published in patent US5679695A, “Aryl and heteroaryl compounds having anti-retrovirus activity” (The University of Connecticut, priority 1995, dated 1997).
Where “and” joins values, the source holds several entries; their conditions need not be identical. Identical values can stand only once. Like-named read-outs stand apart in the source and are kept apart here.

What was measured:
HIV [1] = experiment: Anti-HIV activity in MT-2; format: cell-based
Description: (§1) Obviously, there is a structure activity relationship with respect to the efficacy of the compounds of the present invention. Factors that affect the relationship may include steric effects, electronic effects, (electron withdrawing or electron donating ability), resonance effects, hydrophobic,hydrophilic, hydrogen bonding parameters, etc. […] Based on the data, it has been determined that there is a direct correlation between the log (EC50)^-1 and the electronic effect of a substituent (a) or more precisely the sum of the sigma (σ) values. (The greater the electron withdrawing ability of a substituent, the higher the value of σ, while a better electron donating group has a lower value of σ.) There appears to be a direct correlation between log (EC50)^-1 and the Σσ; as the Σσ increases, so does the log (EC50)^-1. The addition of substituents to the diphenyl sulfone will affect the factors discussed hereinabove, thus both the log (EC50)^-1 and the Σσ will be affected. Thus for the diphenyl sulfone derivative [drawing 25] the relation is […]

HIV-1 = experiment: XTT assay of protection from HIV-1 cytopathic effect, infected, CEM-IW; format: cell-based, Human Immunodeficiency Virus
Procedure: (§2) Another assay for testing the efficacy of the compounds is the procedure* used in the National Cancer Institute's test for agents active against Human Immunodeficiency Virus (HIV). It is designed to detect agents acting at any stage of the virus reproductive cycle. The assay basically involves the killing of T4 lymphocytes by HIV. Small amounts of HIV are added to cells, and a complete cycle of virus reproduction is necessary to obtain the required cell killing. Agents that interact with virions, cells, or virus gene-products to interfere with viral activities will protect cells from cytolysis. The system is automated in several features to accommodate large numbers of candidate agents and is generally designed to detect anti-HIV activity. However, compounds that degenerate, or are rapidly metabolized in the culture conditions may not show activity in this screen. All tests are compared with at least one positive (e.g., AZT-treated) control done at the same time under identical conditions.
(§3) * Weislow. O. W., Kiser, R., Fine, D., Bader, J., Shoemaker, R. H., Boyd, M. R.: New soluble-formazan assay for HIV-1 cytopathic effects: application to high-flux screening of synthetic and natural products for AIDS-antiviral activity. J. Natl. Cancer Inst. 81:577-586, 1989.
(§4) 1. The Candidate agent is dissolved in dimethyl sulfoxide (unless otherwise instructed) then diluted 1:100 in cell culture medium before preparing serial half-log10 dilutions. T4 lymphocytes (CEM cell line) are added and after a brief interval HIV-1 added, resulting in a 1:200 final dilution of the compound. Uninfected cells with the compound serve as a toxicity control, and infected and uninfected cells without compound serve as basic controls.
(§5) 2. Cultures are incubated at 37° in a 5% carbon dioxide atmosphere for 6 days.
(§6) 3. The tetrazolium salt, XTT, is added to all wells, and cultures are incubated to allow formazan color development by viable cells.
(§7) 4. Individual wells are analyzed spectrophotometrically to quantitate formazan production, and in addition are viewed microscopically for detection of viable cells and confirmation of protective activity.
(§8) 5. Drug-treated virus-infected cells are compared with drug-treated noninfected cells and with other appropriate controls (untreated infected and untreated noninfected: cells, drug-containing wells without cells, etc.) on the same plate.
(§9) 6. Data are reviewed in comparison with other tests done at the same time and a determination about activity is made.

CEM-IW = experiment: XTT toxicity control, uninfected, CEM-IW; format: cell-based
Procedure: as §2, §3, §4, §5, §6, §7, §8, §9

[2] = XTT toxicity control, uninfected, CEM-IW; format: cell-based; conditions: human, cem-iw cells, read-out: Uninfected response
Procedure: as §2, §3, §4, §5, §6, §7, §8, §9

HIV [3] = experiment: Anti-HIV assays (summary statements, structure-activity trends); format: cell-based
Description: as §1

[4] = Human immunodeficiency virus 1, read-out: MT-2 EC50, M
[5] = Human immunodeficiency virus 1, CEM-IW, summary table, read-out: CEM-IW EC50
[6] = Human immunodeficiency virus 1, MT-2, summary table, read-out: MT-2 EC50

Structure (SMILES): O=S(=O)(c1ccccc1)c1ccccc1 [Compound 3, diphenyl sulfone]
- EC50 (HIV [1]; [4]): 77.5 µM

Structure (SMILES): O=[N+]([O-])c1ccccc1S(=O)(=O)c1ccc(Cl)cc1 [Compound 4, 1-(4-chlorophenylsulfonyl)-2-nitrobenzene]
- EC50 (HIV-1; [5]): 42.9 µM
- EC50 (HIV [1]; [6]): 38.2 µM

Structure (SMILES): O=[N+]([O-])c1ccccc1Sc1ccccc1[N+](=O)[O-] [Compound 5]
- EC50 (HIV-1; [5]): 7.87 µM
- EC50 (HIV [1]; [4]): 5.77 µM

Structure (SMILES): O=[N+]([O-])c1ccccc1S(=O)(=O)c1ccccc1[N+](=O)[O-] [Compound 6, 2,2'-dinitrodiphenyl sulfone]
- Conclusion (HIV-1; CEM-IW): ACTIVE
- TI50 (IC/EC) (HIV-1; CEM-IW): > 2.05 × 10^+2 and > 1.75 × 10^+2 and > 1.27 × 10^+2 and > 1.62 × 10^+2
- Infected response (HIV-1; CEM-IW, 1.45 × 10^-4 Molar, 145 µM): 94.22% of Control and 83.35% of Control and 80.76% of Control
- Infected response (HIV-1; CEM-IW, 1.45 × 10^-5 Molar, 14.5 µM): 100.31% of Control and 95.03% of Control and 82.49% of Control and 79.91% of Control
- Infected response (HIV-1; CEM-IW, 1.45 × 10^-6 Molar, 1.45 µM): 86.23% of Control and 82.50% of Control and 62.75% of Control and 68.40% of Control
- Infected response (HIV-1; CEM-IW, 4.58 × 10^-5 Molar, 45.8 µM): 95.59% of Control and 83.75% of Control and 82.81% of Control
- Infected response (HIV-1; CEM-IW, 4.59 × 10^-6 Molar, 4.59 µM): 92.81% of Control and 84.87% of Control and 80.73% of Control
- Infected response (HIV-1; CEM-IW, 4.60 × 10^-7 Molar, 0.46 µM): 29.70% of Control and 24.44% of Control and 37.65% of Control
- EC50 (HIV-1; CEM-IW, infected, read-out: EC50): 0.829 µM and 1.14 µM and 0.892 µM
- viability at 145 µM (HIV-1; Human immunodeficiency virus 1, CEM-IW, 1.45 × 10^-4 Molar, read-out: Infected response): 97.4%
- viability at 45.8 µM (HIV-1; Human immunodeficiency virus 1, CEM-IW, 4.58 × 10^-5 Molar, read-out: Infected response): 99%
- viability at 4.59 µM (HIV-1; Human immunodeficiency virus 1, CEM-IW, 4.59 × 10^-6 Molar, read-out: Infected response): 94%
- viability at 0.46 µM (HIV-1; Human immunodeficiency virus 1, CEM-IW, 4.60 × 10^-7 Molar, read-out: Infected response): 42%
- EC50 (HIV-1; Human immunodeficiency virus 1, CEM-IW, infected, read-out: EC50): 0.706 µM
- EC50 (HIV-1; Human immunodeficiency virus 1, read-out: CEM-IW EC50, M, CEM-IW, summary table): 5.44 µM
- EC50 (HIV [1]; [4]): 0.747 µM
- Uninfected response (CEM-IW; 1.45 × 10^-4 Molar, 145 µM): 109.82% of Control and 97.75% of Control and 89.72% of Control and 104.62% of Control
- Uninfected response (CEM-IW; 1.45 × 10^-5 Molar, 14.5 µM): 97.21% of Control and 84.55% of Control and 104.22% of Control
- Uninfected response (CEM-IW; 1.45 × 10^-6 Molar, 1.45 µM): 93.92% of Control and 100.12% of Control and 105.53% of Control
- Uninfected response (CEM-IW; 1.45 × 10^-7 Molar, 0.145 µM): 80.72% of Control and 98.46% of Control and 109.08% of Control and 105.53% of Control
- Uninfected response (CEM-IW; 4.58 × 10^-5 Molar, 45.8 µM): 100.68% of Control and 106.72% of Control and 80.53% of Control and 105.99% of Control
- Uninfected response (CEM-IW; 4.59 × 10^-6 Molar, 4.59 µM): 96.62% of Control and 82.26% of Control and 98.81% of Control
- Uninfected response (CEM-IW; 4.60 × 10^-7 Molar, 0.46 µM): 74.84% of Control and 97.86% of Control and 88.80% of Control and 107.87% of Control
- Uninfected response (CEM-IW; 4.60 × 10^-8 Molar, 0.046 µM): 88.77% of Control and 104.88% of Control and 105.92% of Control and 111.46% of Control
- IC50 (CEM-IW; uninfected (toxicity)): > 145 µM
- viability at 14.5 µM ([2]; 1.45 × 10^-5 Molar): 92.5%
- viability at 1.45 µM ([2]; 1.45 × 10^-6 Molar): 87.1%
- viability at 4.59 µM ([2]; 4.59 × 10^-6 Molar): 90%
- anti-HIV activity (in words) (HIV [3]): increased potency

Structure (SMILES): O=S(=O)(c1ccccc1)c1ccccn1 [Compound 7, phenyl 2-pyridyl sulfone]
- EC50 (HIV-1; [5]): 206 µM
- EC50 (HIV [1]; [6]): 75.7 µM
- anti-HIV activity (in words) (HIV [3]): shows anti-HIV activity

Structure (SMILES): [O-][S+](c1ccccc1)c1ccccc1 [H H H H SO]
- EC50 (HIV [1]; [4]): 358 µM
